Test results as given in US6521620B1, “Bicyclic compounds capable of inhibiting tyrosine kinases of the epidermal growth factor receptor family” (Warner-Lambert Company, priority 1994, dated 2003).
Like-named read-outs stand apart in the source and are kept apart here.

Columns and labels:
[1] = molecular target: T1, Human EGF receptor tyrosine kinase (Homo sapiens, UniProt P00533); assay: EGF receptor tyrosine kinase inhibition (phosphorylation of PLC-gamma 1 derived peptide); assay type: biochemical
T1 construct: isolated from A431 human epidermoid carcinoma cells which overexpress EGF receptor; endogenous in cells; host or cells: A431 human epidermoid carcinoma cells; purified from the lysate on wheat germ agglutinin sepharose
Description: Purification of Epidermal Growth Factor Receptor Tyrosine Kinase—Human EGF receptor tyrosine kinase was isolated from A431 human epidermoid carcinoma cells which overexpress EGF receptor by the following methods. Cells were grown in roller bottles in 50% Delbuco's Modified Eagle and 50% HAM F-12 nutrient media (Gibco) containing 10% fetal calf serum. Approximately 10^9 cells were lysed in two volumes of buffer containing 20 mM 2-(4N-[2-hydroxyethyl]piperazin-1-yl)ethanesulfonic acid (hepes), pH 7.4, 5 mM ethylene glycol bis(2-aminoethyl ether) N,N,N′,N′-tetraacetic acid, 1% Triton X-100, 10% glycerol, 0.1 mM sodium orthovanadate, 5 mM sodium fluoride, 4 mM pyrophosphate, 4 mM benzamide, 1 mM dithiothreitol, 80 μg/mL aprotinin, 40 μg/mL leupeptin and 1 mM phenylmethylsulfonyl fluoride. After centrifugation at 25,000×g for 10 minutes, the supernatant was equilibrated for 2 h at 4° C. with 10 mL of wheat germ agglutinin sepharose that was previously equilibrated with 50 mM Hepes, […], 0.1% Triton X-100 and 150 mM NaCl, pH 7.5, (equilibration buffer). Contaminating proteins were washed from the resin with 1 M NaCl in equilibration buffer, and the enzyme was eluted with 0.5 M N-acetyl-1-D-glucosamine in equilibration buffer, followed by 1 mM urea. The enzyme was eluted with 0.1 mg/ml EGF.
The reaction was terminated by the addition of 2 mL of […] phosphoric acid and passed through a 2.5 cm phosphocellulose filter disc to bind the peptide. The filter was washed five times with 75 mM phosphoric acid and placed in a vial along with 5 mL of scintillation fluid (Ready gel Beckman).

[2] = molecular target: T2, EGF receptor (Homo sapiens, UniProt P00533); assay: Inhibition of EGF-induced autophosphorylation in A431 epidermoid carcinoma cells; assay type: cell-based
T2 construct: EGF receptor autophosphorylation in A431 human epidermoid carcinoma; endogenous in cells; host or cells: A431 human epidermoid carcinoma cells (ATCC)
Description: (§1) Cells were grown to 100% confluency in 100 mm Petrie dishes (Corning). After the cells were treated for 5 minutes with either EGF (epidermal growth factor), PDGF, or bFGF (basic fibroblast growth factor) (20 ng/ml) or 1 ml of conditioned media from MDA-MB-231 cells, the media was removed and the monolayer scraped into 1 ml of ice cold lysis buffer (50 mM Hepes, pH 7.5, 150 mM NaCl, 10% glycerol, 1% triton X-100, 1 mM EDTA, 1 mM EGTA, 10 mM sodium pyrophosphate, 30 mM p-nitrophenyl phosphate, 1 mM orthovanadate, 50 mM sodium fluoride, 1 mM phenylmethylsulfonylfluoride, 10 μg/ml of aprotinin, and 10 μg/ml of leupeptin). The lysate was transferred to a microfuge tube (small centrifuge that holds 1-2 ml plastic centrifuge tubes), allowed to sit on ice 15 minutes and centrifuged 5 minutes at 10,000×g. The supernatant was transferred to a clean microfuge tube and 5 μg of antibody was added to designated samples. The tubes were rotated for 2 hours at […] after which 25 μl of protein A sepharose was added and then rotation continued for at least 2 more hours. The protein A separose was washed 5 times with 50 mM Hepes, pH 7.5, 150 mM NaCl, 10% glycerol and 0.02% sodium azide. […] The extract were transferred to a microfuge tube and heated to 100° C. for 5 minutes. […] Proteins in the gel were electrophoretically transferred to nitrocellulose and the membrane was washed once in 10 mM Tris buffer, pH 7.2, 150 mM NaCl, 0.01% Azide (TNA) and blocked overnight in TNA containing 5% bovine serum albumin and 1% ovalbumin (blocking buffer). The membrane was blotted for 2 hours with the primary antibody (1 μg/ml in blocking buffer) and then washed 2 times sequentially in TNA, TNA containing 0.05% Tween-20 and 0.05% Nonidet P-40 (commercially available detergent) and TNA.

[3] = test system: erbB-2, 3, 4; assay: Inhibition of conditioned media-induced autophosphorylation in SK-BR-3 breast tumor cells; assay type: cell-based, human
Description: as §1

[4] = test system: B104-1-1 - NIH-3T3 fibroblasts transfected by the neu oncogene; assay: Growth inhibition assay (antiproliferative), B104-1-1; assay type: cell-based; conditions: Mus musculus; B104-1-1 cells
[5] = test system: SK-BR-3 - Human breast carcinoma overexpressing erbB-2 and erbB-3; assay: Growth inhibition assay (antiproliferative), SK-BR-3; assay type: cell-based; conditions: SK-BR-3 cells
[6] = test system: MDA-468 - Human breast carcinoma overexpressing the EGF receptor; assay: cells; conditions: read-out: Antiproliferative IC50 (nM)
Description: To obtain conditioned medium, MDA-MB-231 cells were grown to confluency in an 850 cm^2 roller bottle and the medium-replaced with 50 ml of serum-free medium. After 3 days the conditioned medium was removed, frozen down in aliquots and used as a heregulin source to stimulate erbB-2, 3, 4.
Cells (2×10^4) were seeded in 24-well plates (1.7×1.6 cm, flat bottom) in two mls of medium with or without various concentrations of drug. Plates were incubated for 3 days at 37° in a humidified atmosphere containing 5% CO2 in air. Cell growth was determined by cell count with a Coulter Model AM electronic cell counter (Coulter Electronics, Inc., Hialeah, Fla.).

[7] = Table 1, values in nM, read-out: EGF Receptor Tyrosine Kinase Inhibition IC50
[8] = enzyme value repeated in the autophosphorylation table, read-out: EGFR IC50
[9] = SK-BR-3 cells, read-out: SKBR-3 IC50
[10] = Table 1, values in pM, read-out: EGF Receptor Tyrosine Kinase Inhibition IC50
[11] = Table 1, values printed in μM, read-out: EGF Receptor Tyrosine Kinase Inhibition IC50

T1 sequence (P00533 25-1210): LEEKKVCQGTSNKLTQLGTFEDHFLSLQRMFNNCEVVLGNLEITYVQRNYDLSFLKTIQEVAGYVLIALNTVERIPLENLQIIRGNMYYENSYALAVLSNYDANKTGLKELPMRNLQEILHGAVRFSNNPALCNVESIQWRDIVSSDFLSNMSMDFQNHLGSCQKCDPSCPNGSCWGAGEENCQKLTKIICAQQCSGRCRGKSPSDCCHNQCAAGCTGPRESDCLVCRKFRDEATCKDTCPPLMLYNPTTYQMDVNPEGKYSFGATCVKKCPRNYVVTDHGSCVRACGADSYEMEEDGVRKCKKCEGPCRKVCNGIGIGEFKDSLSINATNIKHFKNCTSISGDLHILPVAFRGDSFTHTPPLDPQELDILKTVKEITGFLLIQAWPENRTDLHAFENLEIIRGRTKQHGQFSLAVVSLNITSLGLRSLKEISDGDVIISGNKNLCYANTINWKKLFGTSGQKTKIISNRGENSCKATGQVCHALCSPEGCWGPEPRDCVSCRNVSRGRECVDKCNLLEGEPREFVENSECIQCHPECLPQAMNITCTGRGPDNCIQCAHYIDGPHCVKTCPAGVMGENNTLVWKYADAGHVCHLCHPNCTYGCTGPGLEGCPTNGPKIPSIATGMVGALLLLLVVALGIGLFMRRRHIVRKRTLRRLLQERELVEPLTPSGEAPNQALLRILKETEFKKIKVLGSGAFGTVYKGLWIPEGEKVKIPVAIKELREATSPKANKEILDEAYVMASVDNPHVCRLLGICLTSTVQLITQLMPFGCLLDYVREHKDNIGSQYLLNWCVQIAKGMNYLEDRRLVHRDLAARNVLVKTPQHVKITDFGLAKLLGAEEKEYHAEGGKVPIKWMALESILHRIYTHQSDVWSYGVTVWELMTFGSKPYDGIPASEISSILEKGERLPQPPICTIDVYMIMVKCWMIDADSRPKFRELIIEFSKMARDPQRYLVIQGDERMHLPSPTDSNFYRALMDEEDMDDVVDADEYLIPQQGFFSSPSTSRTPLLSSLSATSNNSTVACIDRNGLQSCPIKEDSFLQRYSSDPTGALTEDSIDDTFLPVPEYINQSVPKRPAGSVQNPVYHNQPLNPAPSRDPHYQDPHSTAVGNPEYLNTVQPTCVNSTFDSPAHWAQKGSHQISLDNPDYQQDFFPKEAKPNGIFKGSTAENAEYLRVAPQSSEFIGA
T2 sequence (P00533 25-1210): as above

Row | Compound | IC50 [1, 7] | IC50 [1, 8] | IC50 [2] | IC50 [3, 9] | further results
1 | Fc1ccc2ncnc(Nc3cccc(Br)c3)c2n1 [Example 4, 4-(3-Bromoanilino)-6-fluoropyrido[3,2-d]pyrimidine] | 225 nM | 225 nM | > 1000 nM | > 10000 nM | 
2 | CN(C)c1cc2c(Nc3cccc(Br)c3)ncnc2cn1 [Example 61, 4-(3-Bromoanilino)-6-dimethylaminopyrido[3,4-d]pyrimidine] |  | 0.006 nM | 21 nM |  | IC50 [1, 10]: 0.006 nM; IC50 ([3]; read-out: SKBR-3 IC50 nM, SK-BR-3 cells): 39 nM; IC50 [4]: 1000 nM; IC50 [5]: 900 nM; IC50 [6]: 12000 nM
3 | c1ccc(CNc2nc[nH]c3nccc2-3)cc1 [Example 74, 4-Benzylaminopyrrolo[2,3-d]pyrimidine] |  | 55 nM |  | > 1000 nM | IC50 [1, 11]: 11500 nM
4 | C[C@@H](Nc1ncnc2ccncc12)c1ccccc1 [Example 39, 4-([R]-1-Phenylethylamino)pyrido[4,3-d]pyrimidine] | 590 nM |  |  |  | melting point: 138 to 138.5 °C
5 | CNc1ccc2ncnc(Nc3cccc(Br)c3)c2n1 [Example 7, 4-(3-Bromoanilino)-6-methylaminopyrido[3,2-d]pyrimidine] | 3.1 nM | 3.1 nM | 20 nM | 100 nM | 
6 | COc1cc2c(Nc3cccc(Br)c3)ncnc2cn1 [Example 59, 4-(3-Bromoanilino)-6-methoxypyrido[3,4-d]pyrimidine] | 2.6 nM | 2.6 nM | 12 nM | < 10 nM | 
7 | Nc1ccc2ncnc(Nc3cccc(Br)c3)c2n1 [Example 6, 4-(3-Bromoanilino)-6-aminopyrido[3,2-d]pyrimidine] | 7.6 nM | 7.6 nM | 53 nM | 2660 nM | 
8 | CN(C)c1ccc2ncnc(Nc3cccc(Br)c3)c2n1 [Example 8, 4-(3-Bromoanilino)-6-dimethylaminopyrido[3,2-d]pyrimidine] | 9.6 nM | 9.6 nM | 32 nM | 71 nM | 
9 | Nc1cc2ncnc(Nc3cccc([N+](=O)[O-])c3)c2cn1 [Example 22, 7-Amino-4-(3-nitroanilino)pyrido[4,3-d]pyrimidine] | 39 nM | 39 nM | 252 nM | ~1500 nM | 
10 | CNc1cc2c(Nc3cccc(Br)c3)ncnc2cn1 [Example 60, 4-(3-Bromoanilino)-6-methylaminopyrido[3,4-d]pyrimidine] |  | 0.008 nM | 13 nM | < 10 nM | IC50 [1, 10]: 0.008 nM; IC50 [4]: 2100 nM; IC50 [5]: 600 nM; IC50 [6]: 3000 nM
11 | NNc1ncc2c(NCc3ccccc3)ncnc2n1 [Example 70, 4-Benzylamino-7-hydrazinopyrimido[4,5-d]pyrimidine] | 473 nM | 11 nM |  | < 10 nM | 
12 | C[C@@H](Nc1ncnc2cc(N)ncc12)c1ccccc1 [Example 41, 7-Amino-4-([R]-1-phenylethylamino)pyrido[4,3-d]pyrimidine] | 220 nM |  |  |  | melting point: 231.8 to 232.1 °C
13 | Nc1cc2ncnc(Nc3ccc(Cl)c(Cl)c3)c2cn1 [Example 25, 7-Amino-4-(3,4-dichloroanilino)pyrido[4,3-d]pyrimidine] | 377 nM |  |  |  | 
14 | COc1cccc(CNc2ncnc3cc(N)ncc23)c1 [Example 45, 7-Amino-4-(3-methoxybenzylamino)pyrido[4,3-d]pyrimidine] |  |  |  |  | IC50 [1, 11]: 2870 nM
15 | Nc1cc2ncnc(NCc3cccc([N+](=O)[O-])c3)c2cn1 [Example 44, 7-Amino-4-(3-nitrobenzylamino)pyrido[4,3-d]pyrimidine] |  |  |  |  | IC50 [1, 11]: 10000 nM
16 | CNc1ncc2c(NCc3ccccc3)ncnc2n1 [Example 69, 4-Benzylamino-7-methylaminopyrimido[4,5-d]pyrimidine] |  |  |  |  | IC50 [1, 11]: 7000 nM
17 | CNc1cc2ncnc(Nc3cccc(Br)c3)c2cn1 [Example 33, 4-(3-Bromoanilino)-7-methylaminopyrido[4 3-d]pyrimidine] |  |  |  |  | IC50 [1, 10]: 0.13 nM
18 | Nc1cc2ncnc(Nc3ccccc3C(F)(F)F)c2cn1 [Example 30, 7-Amino-4-(2-trifluoromethylanilino)pyrido[4,3-d]pyrimidine] |  |  |  |  | IC50 [1, 11]: 10000 nM; melting point: 126 to 130 °C (dec.)
19 | COc1cc2ncnc(Nc3cccc(Br)c3)c2cn1 [Example 37, 4-(3-Bromoanilino)-7-methoxypyrido[4,3-d]pyrimidine] | 39 nM |  |  |  | 
20 | Nc1cc2ncnc(Nc3cccc(I)c3)c2cn1 [Example 29, 7-Amino-4-(3-iodoanilino)pyrido[4,3-d]pyrimidine] | 262 nM |  |  |  | 
21 | Brc1cccc(Nc2ncnc3ccncc23)c1 [Example 11, 4-(3-Bromoanilino)pyrido[4,3-d]pyrimidine] | 194 nM |  |  |  | 
